This is an account of results in patent US20250129044A1 (priority 2021, published 2025).

SMILES strings stand for the structures.

The experiment deals with sodium channel isoforms (Homo sapiens, UniProt P35498). In kind it is cell-based. The following applies: area under the sodium current trace, step from −120 mV to 0 mV, HEK cells. As to the method: The sodium channel isoforms of interest are stably expressed in Human Embryonic Kidney Cells and the currents that flow through those channels in response to a depolarizing voltage clamp step from −120 mV to 0 mV are measured in the presence of increasing concentrations of the chemical agents. The area under the sodium current trace which correlates to the magnitude of sodium flux through the cell membrane is used to quantify the effects on gating of the channels. Other parameters that are measured in the assay include the peak current, time constant of open state inactivation and the voltage dependence of steady state inactivation properties. The concentration responses are used to determine potency of each chemical agents effects on modulating the sodium channel isoform gating. Such techniques are known to those skilled in the art, and may be developed, using current technologies, into low or medium throughput assays for evaluating compounds for their ability to modulate sodium channel behaviour.
`CC(C)c1ncc(C(=O)Nc2c(-c3cc(F)ccc3F)ccnc2C2CCC(F)(F)CO2)cn1` (stereo not shown) [Example 9, N-[4-(2,5-difluorophenyl)-2-(5,5-difluorotetrahydropyran-2-yl)-3-pyridyl]-2-isopropyl-pyrimidine-5-carboxamide]: the “Empirical Emax” value is on record as “+++ (+++ indicates a value from 5.0 up to 7.5 μM)”.
`CN1C[C@H]2CC[C@@H](C1)N2c1ncc(C(=O)Nc2c(-c3cc(F)ccc3F)ccnc2C2CCC(F)(F)CC2)cn1` [Example 160, N-(2-(4,4-difluorocyclohexyl)-4-(2,5-difluorophenyl)pyridin-3-yl)-2-((1R,5S)-3-methyl-3,8-diazabicyclo[3.2.1]octan-8-yl)pyrimidine-5-carboxamide]: the half-maximal effective concentration (EC50) was < 1000 nM.
As for `COc1ccc(C(=O)Nc2c(-c3cc(F)ccc3F)ccnc2C2CCC(F)(F)CC2)cn1` [Example 8, N-[2-(4,4-difluorocyclohexyl)-4-(2,5-difluorophenyl)-3-pyridyl]-6-methoxy-pyridine-3-carboxamide], the “Empirical Emax” value is recorded as “+++ (+++ indicates a value from 5.0 up to 7.5 μM)”.
Consider `CC(C)c1ncc(C(=O)Nc2c(-c3ccccc3)ccnc2C2CCCN2)cn1` (stereo not shown) [Example 40, 2-isopropyl-N-(4-phenyl-2-(pyrrolidin-2-yl)pyridin-3-yl)pyrimidine-5-carboxamide], for which the “Empirical Emax” value is “+ (+ indicates a value less than 2.0 μM)”.
For `CC(C)c1ncc(C(=O)Nc2c(-c3ccccc3F)ccnc2C2CCCC(F)(F)C2)cn1` (stereo not shown) [Example 26, N-[2-(3,3-difluorocyclohexyl)-4-(2-fluorophenyl)-3-pyridyl]-2-isopropyl-pyrimidine-5-carboxamide], the “Empirical Emax” value is “+++ (+++ indicates a value from 5.0 up to 7.5 μM)”.
As for `O=C(Nc1c(-c2cc(F)ccc2F)ccnc1C1CCC(F)(F)CC1)c1cnc(N2CC3CC(C2)O3)nc1` [Example 167, 2-(6-oxa-3-azabicyclo[3.1.1]heptan-3-yl)-N-(2-(4,4-difluorocyclohexyl)-4-(2,5-difluorophenyl)pyridin-3-yl)pyrimidine-5-carboxamide], the EC50 was < 1000 nM.
As to `C1=C(c2nccc(-c3ccccc3)c2-c2nc3c([nH]2)COCC3)CCOC1` [Example 44, 2-(2-(3,6-dihydro-2H-pyran-4-yl)-4-phenylpyridin-3-yl)-3,4,6,7-tetrahydropyrano[3,4-d]imidazole], the “Empirical Emax” value was “+ (+ indicates a value less than 2.0 μM)”.
Consider `CC(C)Oc1ncc(C(=O)Nc2c(-c3ccccc3F)ccnc2C2CCC(F)(F)CC2)cn1` [Example 4, N-[2-(4,4-difluorocyclohexyl)-4-(2-fluorophenyl)-3-pyridyl]-2-isopropoxy-pyrimidine-5-carboxamide], for which the “Empirical Emax” value is recorded as “++++ (++++ indicates a value greater than 7.5)”.
Turning to `CC(C)c1ncc(C(=O)Nc2c(-c3ccccc3F)ccnc2C2CCC3(C2)CC3(F)F)cn1` (stereo not shown) [Example 27, N-[2-(2,2-difluorospiro[2.4]heptan-6-yl)-4-(2-fluorophenyl)-3-pyridyl]-2-isopropyl-pyrimidine-5-carboxamide], the “Empirical Emax” value is listed as “+++ (+++ indicates a value from 5.0 up to 7.5 μM)”.
For the compound `CC(C)c1ncc(C(=O)Nc2c(-c3ccccc3F)ccnc2C2CC(C(F)(F)F)C2)cn1` (stereo not shown) [Example 35, N-(4-(2-fluorophenyl)-2-(3-(trifluoromethyl)cyclobutyl)pyridin-3-yl)-2-isopropylpyrimidine-5-carboxamide], the “Empirical Emax” value was “+++ (+++ indicates a value from 5.0 up to 7.5 μM)”.
Same read-out and setting: the entry for `CC(C)c1ncc(C(=O)Nc2c(-c3ccccc3F)ccnc2C2CC(F)(F)CCN2C)cn1` (racemic) [Example 43] is “++ (++ indicates a value from 2.0 up to 5.0 μM)”; for `CC(C)Oc1ncc(C(=O)Nc2c(-c3cc(F)ccc3F)ccnc2C2CCC(F)(F)CC2)cn1` [Example 7, N-[2-(4,4-difluorocyclohexyl)-4-(2,5-difluorophenyl)-3-pyridyl]-2-isopropoxy-pyrimidine-5-carboxamide] it is “++++ (++++ indicates a value greater than 7.5)”; for `CC(C)c1ncc(C(=O)Nc2c(-c3ccccc3F)ccnc2C2CC(F)(F)CN2C(=O)OC(C)(C)C)cn1` (stereo not shown) [Example 31, tert-butyl 4,4-difluoro-2-[4-(2-fluorophenyl)-3-[(2-isopropylpyrimidine-5-carbonyl)amino]-2-pyridyl]pyrrolidine-1-carboxylate] it is “+ (+ indicates a value less than 2.0 μM)”.
On to `CC(C)c1ncc(C(=O)Nc2c(-c3ccccc3F)ccnc2[C@H]2CC[C@@H](C(F)(F)F)CC2)cn1` [Example 29, N-[4-(2-fluorophenyl)-2-[4-(trifluoromethyl)cyclohexyl]-3-pyridyl]-2-isopropyl-pyrimidine-5-carboxamide], for which the “Empirical Emax” value is “+ (+ indicates a value less than 2.0 μM)”.
For `CC(C)c1ncc(C(=O)Nc2c(-c3ccccc3F)ccnc2C2CC(F)(F)C2)cn1` [Example 32, N-(2-(3,3-difluorocyclobutyl)-4-(2-fluorophenyl)pyridin-3-yl)-2-isopropylpyrimidine-5-carboxamide], the “Empirical Emax” value is “+++ (+++ indicates a value from 5.0 up to 7.5 μM)”.
With `CC(C)c1ncc(C(=O)Nc2c(-c3ccccc3F)ccnc2[C@H]2CC[C@H](F)CC2)cn1` [Example 34], the “Empirical Emax” value is recorded as “+++ (+++ indicates a value from 5.0 up to 7.5 μM)”.
Consider `O=C(Nc1ccc(Cl)nc1)c1c(-c2ccccc2F)ccnc1C1=CCCC1` [Example 50, N-(6-chloropyridin-3-yl)-2-(cyclopent-1-en-1-yl)-4-(2-fluorophenyl)nicotinamide], for which the “Empirical Emax” value is “+ (+ indicates a value less than 2.0 μM)”.
Still for that read-out and setting: the entry for `CC(C)c1ncc(C(=O)Nc2c(-c3ccccn3)ccnc2C2CCC(F)(F)CC2)cn1` [Example 55, N-(2′-(4,4-difluorocyclohexyl)-[2,4′-bipyridin]-3′-yl)-2-isopropylpyrimidine-5-carboxamide] is “+++ (+++ indicates a value from 5.0 up to 7.5 μM)”; for `CC(C)c1ncc(C(=O)Nc2c(-c3ccccc3F)ccnc2C2CC3(C2)CC3(F)F)cn1` (stereo not shown) [Example 22, N-[2-(2,2-difluorospiro[2.3]hexan-5-yl)-4-(2-fluorophenyl)-3-pyridyl]-2-isopropyl-pyrimidine-5-carboxamide] it is “+++ (+++ indicates a value from 5.0 up to 7.5 μM)”; for `CC(C)c1ncc(C(=O)Nc2c(-c3ccccc3F)ccnc2C2CCCC(F)(F)CC2)cn1` (racemic) [Example 37, (±)-N-(2-(4,4-difluorocycloheptyl)-4-(2-fluorophenyl)pyridin-3-yl)-2-isopropylpyrimidine-5-carboxamide] it is “+++ (+++ indicates a value from 5.0 up to 7.5 μM)”.
Consider `CC(C)c1ncc(C(=O)Nc2c(-c3cc(F)ccc3F)ccnc2C2CCC(F)(F)CC2)cn1` [Example 6, N-[2-(4,4-difluorocyclohexyl)-4-(2,5-difluorophenyl)-3-pyridyl]-2-isopropyl-pyrimidine-5-carboxamide], for which the “Empirical Emax” value is given as “+++ (+++ indicates a value from 5.0 up to 7.5 μM)”.
For `c1ccc(-c2ccnc(C3CCOCC3)c2-c2nc3c([nH]2)COCC3)cc1` [Example 45, 2-(4-phenyl-2-(tetrahydro-2H-pyran-4-yl)pyridin-3-yl)-3,4,6,7-tetrahydropyrano[3,4-d]imidazole], the “Empirical Emax” value is listed as “+ (+ indicates a value less than 2.0 μM)”.
